Experimental findings from ChEMBL document CHEMBL1201862, “PubChem BioAssay data set” (2004) are described below.

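Exposure lasted 48 hours, with cells grown in 96-well plates and compounds tested at five concentrations. At the GI50, growth is halved.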 Active and inactive are the calls of the source. No stated cut-off is given here; in the data, active = GI50 up to about 1.1 µM and inactive = higher.

Test systems include SK-MEL-5; SF-268; NCI-H522; HCT-116; SF-295; EKVX; PC-3; RXF 393; LOX IMVI; UO-31; 786-0; K562; MDA-N; RPMI-8226; NCI-H226; SK-MEL-28; U-251; HT-29; MOLT-4; IGROV-1.
What all share (assay): NCI anticancer screen, dose series, 48 h

As for `CC(=O)c1ccc2c3c1[C@H]1O[C@H]1c1cccc(c1-3)[C@@H]1O[C@H]21`, the GI50 in the assay on SK-MEL-5 was 2.17 µM (inactive); with SF-268, 1.51 µM (inactive); with NCI-H522 it was 0.286 µM (active); with HCT-116 it was 1.74 µM (inactive); in the assay with SF-295 it was 4.52 µM (inactive); in the assay with EKVX, 1.9 µM (inactive). For the same compound, the GI50 is 2.47 µM (inactive) in the assay with PC-3; 1.93 µM (inactive) in the assay on RXF 393; 0.31 µM (active) with LOX IMVI; 1.69 µM (inactive) in the assay with UO-31; 2 µM (inactive) in the assay with 786-0; 0.444 µM (active) with K562. In addition, the GI50 was 2.32 µM (inactive) with MDA-N; 2.09 µM (inactive) in the assay on RPMI-8226; 29.4 µM (inactive) with NCI-H226; 1.79 µM (inactive) in the assay on SK-MEL-28; 1.93 µM (inactive) with U-251; 2.3 µM (inactive) in the assay with HT-29. For the same compound, the values for the GI50 in the assay on MOLT-4 and in the assay with IGROV-1 were 3.06 µM (inactive) and 0.112 µM (active), respectively.

As for `COc1ccc(/C=N/n2c(Cc3ccc(Cl)cc3)n[nH]c2=O)c(OC)c1`, the GI50 in the assay with SK-MEL-5 was > 10 µM (inactive); with SF-268 it was 13.5 µM (inactive); in the assay on NCI-H522 it was 16 µM (inactive); in the assay on HCT-116, > 100 µM (inactive); with SF-295, 19 µM (inactive); in the assay on EKVX, 33.1 µM (inactive). The GI50 in the assay with PC-3 is 28.8 µM (inactive); with RXF 393, 19.1 µM (inactive); with LOX IMVI, 60.5 µM (inactive); with UO-31, > 100 µM (inactive); in the assay on 786-0, 22.4 µM (inactive); in the assay on K562 it was > 100 µM (inactive). Also, the GI50 with MDA-N was 57.9 µM (inactive); with RPMI-8226, > 100 µM (inactive); in the assay on NCI-H226, 29.9 µM (inactive); with SK-MEL-28, 80 µM (inactive); in the assay on U-251, 32.2 µM (inactive); in the assay on HT-29, 24.9 µM (inactive). Besides, the GI50 with MOLT-4 was > 100 µM (inactive); with IGROV-1, 20.8 µM (inactive).

Consider `O=C1/C(=C/c2ccccc2)CN(C(=O)CCN2CCCC2)C/C1=C\c1ccccc1`, for which the GI50 is 1.83 µM (inactive) in the assay with SK-MEL-5; 1.72 µM (inactive) with SF-268; 1.31 µM (inactive) with NCI-H522; 0.355 µM (active) in the assay with HCT-116; 1.09 µM (active) in the assay with SF-295; 2.49 µM (inactive) in the assay with EKVX. Besides, the GI50 in the assay with PC-3 is 0.724 µM (active); with RXF 393, 2.33 µM (inactive); in the assay on LOX IMVI it was 0.687 µM (active); in the assay on UO-31 it was 2.77 µM (inactive); in the assay with 786-0 it was 0.895 µM (active); with K562 it was 0.287 µM (active). Moreover, the GI50 in the assay on MDA-N was 0.426 µM (active); in the assay on RPMI-8226 it was 0.253 µM (active); in the assay on NCI-H226 it was 6 µM (inactive); in the assay with SK-MEL-28 it was 1.62 µM (inactive); in the assay on U-251, 0.794 µM (active); with HT-29, 0.867 µM (active). The GI50 in the assay on MOLT-4 was 0.356 µM (active); in the assay with IGROV-1 it was 2.67 µM (inactive).

As to `CCC(NC(C)c1ccccc1)C(O)c1ccc(OCc2ccccc2)c(OCc2ccccc2)c1` (stereo not given), the GI50 with SK-MEL-5 was 4.45 µM (inactive); with SF-268, 19.4 µM (inactive); in the assay with NCI-H522, 15.7 µM (inactive); in the assay with HCT-116, 14.5 µM (inactive); in the assay with SF-295 it was 20.4 µM (inactive); in the assay with EKVX, 16.5 µM (inactive). Also, the GI50 in the assay on PC-3 is 13.9 µM (inactive); in the assay with RXF 393, 8.65 µM (inactive); in the assay with LOX IMVI, 12.1 µM (inactive); with UO-31, 11 µM (inactive); in the assay on 786-0, 13.5 µM (inactive); with K562 it was 3.22 µM (inactive). In addition, the GI50 in the assay on MDA-N is 15.3 µM (inactive); in the assay on RPMI-8226, 4.04 µM (inactive); in the assay with NCI-H226 it was 18.6 µM (inactive); in the assay on SK-MEL-28 it was 19.9 µM (inactive); in the assay with U-251 it was 13 µM (inactive); in the assay with HT-29, 3.31 µM (inactive). Also, the figures for the GI50 with MOLT-4 and with IGROV-1 were 14.8 µM (inactive) and 18.6 µM (inactive), respectively.

As for `C=CC(=O)NCCC(=O)OCn1cc(F)c(=O)[nH]c1=O`, the GI50 in the assay with SK-MEL-5 is 3.67 µM (inactive); in the assay on SF-268, 18.7 µM (inactive); in the assay with NCI-H522 it was 9.4 µM (inactive); in the assay on HCT-116 it was 3.24 µM (inactive); with SF-295, 15.5 µM (inactive); in the assay with EKVX it was 10.4 µM (inactive). The GI50 is 9.12 µM (inactive) in the assay with PC-3; 10.1 µM (inactive) with RXF 393; 4.34 µM (inactive) in the assay on LOX IMVI; 2.33 µM (inactive) in the assay on UO-31; 2.92 µM (inactive) in the assay with 786-0; 9.66 µM (inactive) with K562. Further, the GI50 was 1.56 µM (inactive) in the assay on MDA-N; 1.75 µM (inactive) in the assay on RPMI-8226; 13.3 µM (inactive) with NCI-H226; 32.2 µM (inactive) with SK-MEL-28; 18 µM (inactive) in the assay with U-251; 4.12 µM (inactive) in the assay with HT-29. Further, the GI50 is 6.01 µM (inactive) in the assay with MOLT-4 and 4.33 µM (inactive) in the assay with IGROV-1.

As to `COc1ccc(NS(=O)(=O)c2ccc(NC(NC(=O)CC(C)C)(C(F)(F)F)C(F)(F)F)cc2)nn1`, the GI50 in the assay with SK-MEL-5, with SF-268, in the assay with NCI-H522, in the assay on HCT-116, with SF-295 and in the assay on EKVX was > 100 µM (inactive) each time. Also, the GI50 with PC-3, with RXF 393, with LOX IMVI, in the assay on UO-31, in the assay with 786-0 and with K562 was > 100 µM (inactive) each time. Also, the GI50 with MDA-N, with RPMI-8226, in the assay on NCI-H226, in the assay on SK-MEL-28, with U-251 and in the assay with HT-29 was > 100 µM (inactive) each time. The GI50 in the assay with MOLT-4 and in the assay with IGROV-1 was > 100 µM (inactive) each time.

With `COc1cc2c(cc1C)NC(=O)/C2=C/c1c(Cl)[nH]c2cc(C)c(OC)cc12`, the GI50 is 2.62 µM (inactive) in the assay with SK-MEL-5; 2.79 µM (inactive) in the assay on SF-268; 5.25 µM (inactive) with NCI-H522; 3.85 µM (inactive) with HCT-116; 1.21 µM (inactive) in the assay with SF-295; 8.04 µM (inactive) in the assay with EKVX. Moreover, the GI50 with PC-3 is 4.23 µM (inactive); in the assay with RXF 393, 6.81 µM (inactive); in the assay with LOX IMVI it was 2.42 µM (inactive); with UO-31 it was 10 µM (inactive); in the assay with 786-0, 3.23 µM (inactive); with K562, 4.36 µM (inactive). Also, the GI50 in the assay on MDA-N was 2.84 µM (inactive); with RPMI-8226 it was 3.98 µM (inactive); with NCI-H226 it was 17.2 µM (inactive); with SK-MEL-28 it was 8.13 µM (inactive); in the assay on U-251, 2.86 µM (inactive); with HT-29, 4.29 µM (inactive). In addition, the values for the GI50 with MOLT-4 and with IGROV-1 were 1.45 µM (inactive) and 1.32 µM (inactive), respectively.
